Literature values as cited in patent US20100104547A1, “TOPICAL COMPOSITION FOR THE TREATMENT OF ALLERGENIC EFFECTS” (priority 2005, published 2010).

B1: papain (protein, UniProt P00784 134-345, looked up)
Papain: IPEYVDWRQKGAVTPVKNQGSCGSCWAFSAVVTIEGIIKIRTGNLNEYSEQELLDCDRRSYGCNGGYPWSALQLVAQYGIHYRNTYPYEGVQRYCRSREKGPYAAKTDGVRQVQPYNEGALLYSIANQPVSVVLEAAGKDFQLYRGGIFVGPCGNKVDHAVAAVGYGPNYILIKNSWGTGWGENGYIRIKRGTGNSYGVCGLYTSSFYPVKN
notes: proteolytic enzyme, commonly in the form of meat tenderizer

How the values were obtained:
[1] = topical application
[2] = mice, bee venom intradermal; test substance by intradermal injection or topical application

| Molecule | reducing the itch associated with mosquito and black fly bites [1] | inhibition of lesion development [2] |
| --- | --- | --- |
| pancreatin | effective |  |
| subtilisin | effective |  |
| B1 | effective | no marked inhibition |
